# Reference: patent publication US12029751B2, “Therapeutic agent for nervous system disease” (OSAKA UNIVERSITY, priority 2017, dated 2024)
# System: rat spinal cord injury model
# Assay: Immunofluorescent staining of macrophages (M1, M2, M1/M2 ratio) in rat spinal cord injury model
# Type: in vivo
# Design: Number of macrophages: unit: /mm2
# Protocol: Six-week-old female Wistar rats were used. The rats were purchased from Charles River Laboratories Japan, Inc. (Yokohama, Japan). Anesthesia was performed as follows. A 1:10 dilution of a mixture of three anesthetic agents in physiological saline was administered by intraperitoneal injection. One dose consisted of 0.2 mg/kg of midazolam, 0.015 mg/kg of medetomidine, and 0.25 mg/kg of butorphanol. The rat was placed in a prone position on an operating table, and a dorsal midline incision was made. The T10 vertebral arch was removed to expose the posterior face of the spinal cord, and the left spinal cord was hemisected using a sharp-pointed surgical scalpel (spitz mess). The skin was sutured using a 4-0 nylon thread and the surgery was completed. A comparison was made among three groups: a methylcobalamin treatment group, an untreated group, and a sham group. Immediately after the surgical operation, an osmotic minipump filled with methylcobalamin (1 mg/kg/day) or physiological saline was placed for the methylcobalamin treatment group and the untreated group, respectively, and left in the left dorsal subcutaneous space. The sham group underwent only resection of the Th10 vertebral arch.
# The rat spinal cord injury model of Example 9-1 was used. At 7, 14, and 28 days after the surgery, the rats were anesthetized with an anesthetic agent, and perfusion fixation was performed with 4% PFA. Then, the spinal cord including the injury site was collected and fixed with 20% sucrose for 24 hours, and the fixed spinal cord was freeze-embedded. The embedded tissue was sliced into a 5-μm-thick slice in a nerve short-axis direction and placed on a glass slide. The slice was dried for 1 hour and fixed with 100% methanol for 30 minutes. The fixed slices were blocked, and cells were allowed to react with primary antibodies at 4° C. overnight. The cells were further allowed to react with a secondary antibody at room temperature for 1 hour so that the nuclei were labeled with DAPI.
# Using transverse spinal cord sections on the affected side at 2 and 1 mm on the head side and at 1 and 2 mm on the tail side from the injury site, the number of macrophages, the number of M1 (pro-inflammatory type) macrophages, the proportion of M1 macrophages, the number of M2 (anti-inflammatory type) macrophages, and the proportion of M2 macrophage per unit area, as well as the M1/M2 ratio were measured and calculated.
# The primary antibodies used were an anti-CD68 antibody, an anti-iNOS antibody, and an anti-Arg1 antibody. The secondary antibodies used were an Alexa 488-labeled goat anti-rabbit IgG antibody and an Alexa 568-labeled goat anti-mouse IgG antibody.
# [1] = 7, 14 and 28 days after the surgery, 1 mg/kg/day
# [2] = Table 16 (FIG. 16; day not given), 1 mm on the head side
# [3] = Table 16 (FIG. 16; day not given), 1 mm on the tail side
# [4] = Table 16 (FIG. 16; day not given), 2 mm on the head side
# [5] = Table 16 (FIG. 16; day not given), 2 mm on the tail side
# [6] = Table 17 (FIG. 17; day not given), 1 mm on the head side
# [7] = Table 17 (FIG. 17; day not given), 1 mm on the tail side
# [8] = Table 17 (FIG. 17; day not given), 2 mm on the head side
# [9] = Table 17 (FIG. 17; day not given), 2 mm on the tail side
# [10] = Table 18 (FIG. 18; day not given), 1 mm on the head side
# [11] = Table 18 (FIG. 18; day not given), 1 mm on the tail side
# [12] = Table 18 (FIG. 18; day not given), 2 mm on the head side
# [13] = Table 18 (FIG. 18; day not given), 2 mm on the tail side
smiles,measurement,setting,value
"C/C1=C2/[N-][C@H]([C@H](CC(N)=O)[C@@]2(C)CCC(=O)NC[C@@H](C)OP(=O)([O-])O[C@H]2[C@@H](O)[C@@H](n3cnc4cc(C)c(C)cc43)O[C@@H]2CO)[C@]2(C)N=C(/C(C)=C3N=C(/C=C4N=C1[C@@H](CCC(N)=O)C\4(C)C)[C@@H](CCC(N)=O)[C@]\3(C)CC(N)=O)[C@@H](CCC(N)=O)[C@]2(C)CC(N)=O.[CH3-].[Co+3] [MeCbl, methylcobalamin]",M1 macrophages as compared with the untreated group,[1],trends for decreased M1 macrophages
same,M2 macrophages as compared with the untreated group,[1],increased M2 macrophages
same,number of accumulated macrophages per unit area as compared with the untreated group,[1],trends for a smaller number
same,M1/M2,"7 days after a surgery, 1 mm on the head side",0.5722
same,M1/M2,"7 days after a surgery, 1 mm on the tail side",0.602
same,M1/M2,"7 days after a surgery, 2 mm on the head side",0.8156
same,M1/M2,"7 days after a surgery, 2 mm on the tail side",0.9337
same,M1/M2,"14 days after a surgery, 1 mm on the head side",0.993
same,M1/M2,"14 days after a surgery, 1 mm on the tail side",0.9409
same,M1/M2,"14 days after a surgery, 2 mm on the head side",0.9106
same,M1/M2,"14 days after a surgery, 2 mm on the tail side",0.8605
same,M1/M2,"28 days after a surgery, 1 mm on the head side",2.457
same,M1/M2,"28 days after a surgery, 1 mm on the tail side",4.3
same,M1/M2,"28 days after a surgery, 2 mm on the head side",3.355
same,M1/M2,"28 days after a surgery, 2 mm on the tail side",3.545
same,M1 macropage ratio,[2],0.131
same,Number of M1 macrophages/mm2,[2],37.00 /mm2
same,Number of M2 macrophages/mm2,[2],63.85 /mm2
same,Number of macrophages,[2],268.62
same,M1 macropage ratio,[3],0.129
same,Number of M1 macrophages/mm2,[3],43.07 /mm2
same,Number of M2 macrophages/mm2,[3],76.13 /mm2
same,Number of macrophages,[3],348.57
same,M1 macropage ratio,[4],0.143
same,Number of M1 macrophages/mm2,[4],20.43 /mm2
same,Number of M2 macrophages/mm2,[4],25.87 /mm2
same,Number of macrophages,[4],143.68
same,M1 macropage ratio,[5],0.170
same,Number of M1 macrophages/mm2,[5],27.02 /mm2
same,Number of M2 macrophages/mm2,[5],28.76 /mm2
same,Number of macrophages,[5],155.09
same,M1 macrophage ratio,[6],0.122
same,M2 macrophage ratio,[6],0.130
same,Number of M1 macropages/mm2,[6],48.35 /mm2
same,Number of M2 macrophages/mm2,[6],47.90 /mm2
same,Number of macrophages,[6],362.17
same,M1 macrophage ratio,[7],0.102
same,M2 macrophage ratio,[7],0.112
same,Number of M1 macropages/mm2,[7],43.74 /mm2
same,Number of M2 macrophages/mm2,[7],43.12 /mm2
same,Number of macrophages,[7],395.70
same,M1 macrophage ratio,[8],0.103
same,M2 macrophage ratio,[8],0.146
same,Number of M1 macropages/mm2,[8],28.35 /mm2
same,Number of M2 macrophages/mm2,[8],36.37 /mm2
same,Number of macrophages,[8],271.15
same,M1 macrophage ratio,[9],0.094
same,M2 macrophage ratio,[9],0.143
same,Number of M1 macropages/mm2,[9],25.54 /mm2
same,Number of M2 macrophages/mm2,[9],28.29 /mm2
same,Number of macrophages,[9],254.39
same,M1 macrophage ratio,[10],0.090
same,M2 macropahge ratio,[10],0.039
same,Number of M1 macrophages/mm2,[10],29.78 /mm2
same,Number of M2 macrophages/mm2,[10],12.86 /mm 2
same,Number of macrophages,[10],320.22
same,M1 macrophage ratio,[11],0.132
same,M2 macropahge ratio,[11],0.032
same,Number of M2 macrophages/mm2,[11],10.33 /mm 2
same,Number of macrophages,[11],342.11
same,Number of M1 macrophages/mm2,"Table 18 (FIG. 18; day not given), 1 mm on the tail side (last position column)",24.68 /mm2
same,Number of M1 macrophages/mm2,"Table 18 (FIG. 18; day not given), 1 mm on the tail side (third position column)",44.79 /mm2
same,M1 macrophage ratio,[12],0.089
same,M2 macropahge ratio,[12],0.032
same,Number of M1 macrophages/mm2,[12],20.16 /mm2
same,Number of M2 macrophages/mm2,[12],7.65 /mm 2
same,Number of macrophages,[12],230.75
same,M1 macrophage ratio,[13],0.095
same,M2 macropahge ratio,[13],0.032
same,Number of M2 macrophages/mm2,[13],7.42 /mm 2
same,Number of macrophages,[13],246.52
